#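 These data come from cells grown in 96-well plates and exposed to compound for 48 hours at five concentrations. Here, GI50 denotes the concentration required for 50% inhibition of growth.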 Activity calls are given as the source filed them. Cut-off read from the data, not from the text of the source: active = GI50 up to about 1.1 µM and inactive = higher.
# Tests used:
# Test in all cases: NCI anticancer screen, dose series, 48 h
# SK-OV-3 = test system: SK-OV-3
# CCRF-CEM = test system: CCRF-CEM
# IGROV-1 = test system: IGROV-1
# SF-539 = test system: SF-539
# SN12C = test system: SN12C
# SF-268 = test system: SF-268
# HT-29 = test system: HT-29
# SNB-75 = test system: SNB-75
# EKVX = test system: EKVX
# UACC-62 = test system: UACC-62
# ACHN = test system: ACHN
# SK-MEL-5 = test system: SK-MEL-5
# UACC-257 = test system: UACC-257
# SW-620 = test system: SW-620
# SK-MEL-2 = test system: SK-MEL-2
# Malme-3M = test system: Malme-3M
# DMS-114 = test system: DMS-114
# CAKI-1 = test system: CAKI-1
# SK-MEL-28 = test system: SK-MEL-28
# MOLT-4 = test system: MOLT-4
# A498 = test system: A498
# DMS-273 = test system: DMS-273
# KM-20L2 = test system: KM-20L2
# COLO 205 = test system: COLO 205
# U-251 = test system: U-251
# HOP-18 = test system: HOP-18
# A549 = test system: A549
# HCC 2998 = test system: HCC 2998
# KM12 = test system: KM12
# LXFL 529 = test system: LXFL 529
# SF-295 = test system: SF-295
# HCT-15 = test system: HCT-15
# DLD-1 = test system: DLD-1
# NCI-H522 = test system: NCI-H522
# HL-60 = test system: HL-60
# RXF 631 = test system: RXF 631
# OVCAR-4 = test system: OVCAR-4
# SNB-78 = test system: SNB-78
# NCI-H23 = test system: NCI-H23
# K562 = test system: K562
# OVCAR-3 = test system: OVCAR-3
# HOP-62 = test system: HOP-62
# OVCAR-5 = test system: OVCAR-5
# SR = test system: SR
# HCT-116 = test system: HCT-116
# TK-10 = test system: TK-10
# RPMI-8226 = test system: RPMI-8226
# HOP-92 = test system: HOP-92
# OVCAR-8 = test system: OVCAR-8
# M14 = test system: M14
# UO-31 = test system: UO-31
# NCI-H226 = test system: NCI-H226
# RXF 393 = test system: RXF 393
# 786-0 = test system: 786-0
# M19-MEL = test system: M19-MEL
# NCI-H460 = test system: NCI-H460
# SNB-19 = test system: SNB-19
# XF498 = test system: XF498
# LOX IMVI = test system: LOX IMVI
structure (smiles),measurement,setting,value
CS(=O)(=O)OCC1=C(COS(C)(=O)=O)C(=O)c2c(O)ccc(O)c2C1=O,GI50,SK-OV-3,> 100 µM (inactive)
same,GI50,CCRF-CEM,> 100 µM (inactive)
same,GI50,IGROV-1,> 100 µM (inactive)
same,GI50,SF-539,> 100 µM (inactive)
same,GI50,SN12C,> 100 µM (inactive)
same,GI50,SF-268,> 100 µM (inactive)
same,GI50,HT-29,> 100 µM (inactive)
same,GI50,SNB-75,> 100 µM (inactive)
same,GI50,EKVX,> 100 µM (inactive)
same,GI50,UACC-62,> 100 µM (inactive)
same,GI50,ACHN,> 100 µM (inactive)
same,GI50,SK-MEL-5,> 100 µM (inactive)
same,GI50,UACC-257,> 100 µM (inactive)
same,GI50,SW-620,> 100 µM (inactive)
same,GI50,SK-MEL-2,> 100 µM (inactive)
same,GI50,Malme-3M,> 100 µM (inactive)
same,GI50,DMS-114,> 100 µM (inactive)
same,GI50,CAKI-1,> 100 µM (inactive)
same,GI50,SK-MEL-28,> 100 µM (inactive)
same,GI50,MOLT-4,> 100 µM (inactive)
same,GI50,A498,> 100 µM (inactive)
same,GI50,DMS-273,> 100 µM (inactive)
same,GI50,KM-20L2,> 100 µM (inactive)
same,GI50,COLO 205,> 100 µM (inactive)
same,GI50,U-251,> 100 µM (inactive)
same,GI50,HOP-18,> 100 µM (inactive)
same,GI50,A549,> 100 µM (inactive)
same,GI50,HCC 2998,> 100 µM (inactive)
same,GI50,KM12,> 100 µM (inactive)
same,GI50,LXFL 529,> 100 µM (inactive)
same,GI50,SF-295,> 100 µM (inactive)
same,GI50,HCT-15,> 100 µM
same,GI50,DLD-1,> 100 µM (inactive)
same,GI50,NCI-H522,> 100 µM (inactive)
same,GI50,HL-60,> 100 µM (inactive)
same,GI50,RXF 631,> 100 µM (inactive)
same,GI50,OVCAR-4,> 100 µM (inactive)
same,GI50,SNB-78,> 100 µM (inactive)
same,GI50,NCI-H23,> 100 µM (inactive)
same,GI50,K562,> 100 µM (inactive)
same,GI50,OVCAR-3,> 100 µM (inactive)
same,GI50,HOP-62,> 100 µM (inactive)
same,GI50,OVCAR-5,> 100 µM (inactive)
same,GI50,SR,> 100 µM (inactive)
same,GI50,HCT-116,> 100 µM (inactive)
same,GI50,TK-10,> 100 µM (inactive)
same,GI50,RPMI-8226,> 100 µM (inactive)
same,GI50,HOP-92,> 100 µM (inactive)
same,GI50,OVCAR-8,> 100 µM (inactive)
same,GI50,M14,> 100 µM (inactive)
same,GI50,UO-31,> 100 µM (inactive)
same,GI50,NCI-H226,> 100 µM (inactive)
CC(C)c1ccccc1NC(=O)C(=O)Cc1nc2ccccc2s1,GI50,SK-OV-3,> 100 µM (inactive)
same,GI50,CCRF-CEM,> 100 µM (inactive)
same,GI50,IGROV-1,> 100 µM (inactive)
same,GI50,SF-539,> 100 µM (inactive)
same,GI50,RXF 393,> 100 µM (inactive)
same,GI50,SN12C,> 100 µM (inactive)
same,GI50,SF-268,> 100 µM (inactive)
same,GI50,HT-29,> 100 µM (inactive)
same,GI50,SNB-75,> 100 µM (inactive)
same,GI50,EKVX,> 100 µM (inactive)
same,GI50,UACC-62,> 100 µM (inactive)
same,GI50,ACHN,> 100 µM (inactive)
same,GI50,SK-MEL-5,> 100 µM (inactive)
same,GI50,UACC-257,> 100 µM (inactive)
same,GI50,SW-620,> 100 µM (inactive)
same,GI50,SK-MEL-2,> 100 µM (inactive)
same,GI50,Malme-3M,> 100 µM (inactive)
same,GI50,DMS-114,> 100 µM (inactive)
same,GI50,786-0,> 100 µM (inactive)
same,GI50,CAKI-1,> 100 µM (inactive)
same,GI50,SK-MEL-28,> 100 µM (inactive)
same,GI50,MOLT-4,> 100 µM (inactive)
same,GI50,A498,> 100 µM (inactive)
same,GI50,DMS-273,> 100 µM (inactive)
same,GI50,KM-20L2,> 100 µM (inactive)
same,GI50,COLO 205,> 100 µM (inactive)
same,GI50,U-251,> 100 µM (inactive)
same,GI50,HOP-18,> 100 µM (inactive)
same,GI50,A549,> 100 µM (inactive)
same,GI50,HCC 2998,> 100 µM (inactive)
same,GI50,KM12,> 100 µM (inactive)
same,GI50,LXFL 529,> 100 µM (inactive)
same,GI50,SF-295,> 100 µM (inactive)
same,GI50,HCT-15,> 100 µM
same,GI50,NCI-H522,> 100 µM (inactive)
same,GI50,M19-MEL,> 100 µM (inactive)
same,GI50,HL-60,> 100 µM (inactive)
same,GI50,RXF 631,> 100 µM (inactive)
same,GI50,NCI-H460,> 100 µM (inactive)
same,GI50,OVCAR-4,> 100 µM (inactive)
same,GI50,SNB-78,> 100 µM (inactive)
same,GI50,NCI-H23,> 100 µM (inactive)
same,GI50,OVCAR-3,> 100 µM (inactive)
same,GI50,HOP-62,> 100 µM (inactive)
same,GI50,SR,> 100 µM (inactive)
same,GI50,HCT-116,> 100 µM (inactive)
same,GI50,TK-10,> 100 µM (inactive)
same,GI50,HOP-92,> 100 µM (inactive)
same,GI50,OVCAR-8,> 100 µM (inactive)
same,GI50,SNB-19,> 100 µM (inactive)
same,GI50,M14,> 100 µM (inactive)
same,GI50,UO-31,> 100 µM (inactive)
same,GI50,NCI-H226,> 100 µM (inactive)
Cc1ccc(C2(C)NC(=S)N(NC(N)=S)C2=S)cc1 (stereo not given),GI50,CCRF-CEM,24.6 µM (inactive)
same,GI50,IGROV-1,> 100 µM (inactive)
same,GI50,SF-539,> 100 µM (inactive)
same,GI50,RXF 393,80.2 µM (inactive)
same,GI50,SN12C,> 100 µM (inactive)
same,GI50,SF-268,> 100 µM (inactive)
same,GI50,SNB-75,25.3 µM (inactive)
same,GI50,EKVX,> 100 µM (inactive)
same,GI50,UACC-62,43.2 µM (inactive)
same,GI50,ACHN,> 100 µM (inactive)
same,GI50,SK-MEL-5,> 100 µM (inactive)
same,GI50,UACC-257,> 100 µM (inactive)
same,GI50,SW-620,87.7 µM (inactive)
same,GI50,SK-MEL-2,> 100 µM (inactive)
same,GI50,Malme-3M,> 100 µM (inactive)
same,GI50,DMS-114,73.6 µM (inactive)
same,GI50,786-0,81.1 µM (inactive)
same,GI50,SK-MEL-28,> 100 µM (inactive)
same,GI50,MOLT-4,46.3 µM (inactive)
same,GI50,A498,> 100 µM (inactive)
same,GI50,DMS-273,> 100 µM (inactive)
same,GI50,KM-20L2,> 100 µM (inactive)
same,GI50,COLO 205,> 100 µM (inactive)
same,GI50,U-251,> 100 µM (inactive)
same,GI50,A549,> 100 µM (inactive)
same,GI50,HCC 2998,> 100 µM (inactive)
same,GI50,LXFL 529,71.8 µM (inactive)
same,GI50,SF-295,> 100 µM (inactive)
same,GI50,HCT-15,> 100 µM
same,GI50,DLD-1,71.1 µM (inactive)
same,GI50,M19-MEL,> 100 µM (inactive)
same,GI50,HL-60,> 100 µM (inactive)
same,GI50,RXF 631,> 100 µM (inactive)
same,GI50,NCI-H460,> 100 µM (inactive)
same,GI50,OVCAR-4,> 100 µM (inactive)
same,GI50,NCI-H23,> 100 µM (inactive)
same,GI50,K562,39.6 µM (inactive)
same,GI50,OVCAR-3,> 100 µM (inactive)
same,GI50,HOP-62,> 100 µM (inactive)
same,GI50,SR,51.6 µM (inactive)
same,GI50,HCT-116,> 100 µM (inactive)
same,GI50,TK-10,> 100 µM (inactive)
same,GI50,RPMI-8226,32.7 µM (inactive)
same,GI50,OVCAR-8,> 100 µM (inactive)
same,GI50,SNB-19,> 100 µM (inactive)
same,GI50,M14,> 100 µM (inactive)
same,GI50,UO-31,> 100 µM (inactive)
same,GI50,NCI-H226,> 100 µM (inactive)
same,GI50,XF498,> 100 µM (inactive)
same,GI50,LOX IMVI,47 µM (inactive)

# — ChEMBL document CHEMBL1201862, “PubChem BioAssay data set” (2004)
